Test systems include M19-MEL melanoma; RXF-631 renal; KM20L2 colon; DLD-1 colon; DMS 114 small cell lung; DMS 273 small cell lung; MDA-N; NCI/ADR-RES ovarian; MDA-MB-435.
Holding throughout (experiment): NCI tumour cell line growth inhibition, 48 h

The structures appear in SMILES notation. Several values for one entry are separate records, joined by “and”; a condition that tells them apart may be missing. Identical values can stand only once.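 Following 48 hours of exposure in 96-well plates, responses at five concentrations were used to interpolate endpoints linearly. Here, GI50 denotes the concentration required for 50% inhibition of growth. TGI: total growth inhibition.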

23 compounds from PubChem BioAssay (NCI) can be followed below.

As for `O=C1C2C3C=C4c5ccccc5N(c5ccccc5)C4(C2C(=O)N1Cc1ccccc1)C1C(=O)N(Cc2ccccc2)C(=O)C31` (configuration not stated), the TGI with M19-MEL melanoma, in the assay with RXF-631 renal, in the assay with KM20L2 colon, in the assay with DLD-1 colon and with DMS 114 small cell lung was above 100 µM in each case.
Turning to `Cc1cn(C2CC(O)C(CO)O2)c(=O)n2nnnc12` (configuration not stated), the TGI in the assay with M19-MEL melanoma, with DMS 273 small cell lung, with RXF-631 renal, in the assay on DLD-1 colon and in the assay on DMS 114 small cell lung was above 100 µM each time.
`COc1cc(C(C)O)c[n+](CCc2c[nH]c3ccccc23)c1` (configuration not stated): the TGI with M19-MEL melanoma, with DMS 273 small cell lung, in the assay with RXF-631 renal, in the assay with KM20L2 colon, in the assay on DLD-1 colon and in the assay with DMS 114 small cell lung was above 100 µM in each case.
Turning to `Cc1nc(N)sc1C(=O)/C=C\c1ccc2c(c1)OCO2`, the TGI in the assay on M19-MEL melanoma, in the assay with DMS 273 small cell lung, in the assay with RXF-631 renal, in the assay with KM20L2 colon, in the assay on DLD-1 colon and in the assay with DMS 114 small cell lung was above 100 µM each time.
In the case of `N#CC(NNC(=O)Cc1ccccc1)c1c(O)ccc2ccccc12` (configuration not stated), the TGI in the assay on MDA-N was above 100 µM; with M19-MEL melanoma it was 16.3 µM; in the assay on DMS 273 small cell lung it was 19.1 µM; in the assay with KM20L2 colon, 42 µM; with NCI/ADR-RES ovarian, 16 µM; in the assay on MDA-MB-435, 84.1 µM. Besides, the TGI was above 100 µM with DLD-1 colon and 5.38 µM in the assay with DMS 114 small cell lung.
Consider `COc1cc2c(c(OC)c1OC)-c1ccc(OC)c(=O)cc1[C@@H](NC(=O)c1ccccc1)CC2`, for which the GI50 in the assay with MDA-N and in the assay on MDA-MB-435 was below 0.003 µM each time. The TGI is below 0.003 µM in the assay with MDA-N; above 100 µM in the assay on M19-MEL melanoma; above 48.3 µM with RXF-631 renal; 1.15 µM and 1.05 µM in the assay on NCI/ADR-RES ovarian; below 0.003 µM in the assay with MDA-MB-435; above 100 µM in the assay with DLD-1 colon. This compound displayed a TGI with DMS 114 small cell lung below 0.016 µM.
For `C[C@@H]1CC(=O)C2CCCC1C2=O` (some centres not stated), the TGI in the assay on M19-MEL melanoma, in the assay on DMS 273 small cell lung, in the assay with RXF-631 renal, with KM20L2 colon, in the assay with DLD-1 colon and in the assay on DMS 114 small cell lung was above 100 µM in each case.
In the case of `CC1(C)SCc2nc3ncccc3n21`, the TGI with M19-MEL melanoma, with RXF-631 renal, with KM20L2 colon, with DLD-1 colon and with DMS 114 small cell lung was above 100 µM in each case.
Turning to `CC1CC[C@]2(C(=O)O)CCC3(C)C(=CC(=O)C4[C@@]5(C)CCC(=O)C(C)(C)C5CC[C@]43C)[C@@H]2[C@H]1C` (some centres not stated), the TGI with M19-MEL melanoma was 71.3 µM; in the assay with RXF-631 renal, above 100 µM; in the assay on DMS 114 small cell lung, 63.1 µM.
Turning to `Cc1cccc(NC(=O)/C(=N\NC(C)(C)C)C2NC(=S)NC2=O)c1C` (configuration not stated), the TGI with M19-MEL melanoma, in the assay on RXF-631 renal, with KM20L2 colon and in the assay with DLD-1 colon was above 100 µM each time.
Regarding `CC(=O)/C(C)=N/NC(=O)c1ccccc1O`, the TGI in the assay with MDA-N is above 100 µM; with M19-MEL melanoma, above 10 µM; in the assay with DMS 273 small cell lung, above 10 µM; in the assay with RXF-631 renal, above 10 µM; in the assay with KM20L2 colon it was above 10 µM; in the assay with NCI/ADR-RES ovarian it was above 100 µM. Further, the TGI in the assay on MDA-MB-435 is above 100 µM; with DLD-1 colon, above 10 µM; in the assay with DMS 114 small cell lung, above 10 µM.
As to `Cc1ccc(C2=C(c3ccccc3)C(Br)(c3ccc(C)cc3)C(c3ccccc3)=C2c2ccc(C)cc2)cc1`, the TGI with M19-MEL melanoma, in the assay on DMS 273 small cell lung, in the assay with RXF-631 renal, with KM20L2 colon, in the assay on DLD-1 colon and in the assay on DMS 114 small cell lung was above 100 µM each time.
`CC(C)(C)c1ccc2c(c1)S(=O)(=O)Nc1ccccc1NS(=O)(=O)c1cc(C(C)(C)C)ccc1OCCOCCOCCO2`: the TGI with M19-MEL melanoma, in the assay on DMS 273 small cell lung, in the assay with RXF-631 renal, in the assay with DLD-1 colon and in the assay on DMS 114 small cell lung was above 100 µM each time.
Take `COc1ccc(C(=O)C(C(=O)CCC(=O)Nc2cccc(Cl)c2)c2ccc(OC)cc2)cc1` (configuration not stated): the TGI in the assay on M19-MEL melanoma, in the assay with DMS 273 small cell lung, with RXF-631 renal, with KM20L2 colon and in the assay with DLD-1 colon was above 100 µM each time.
With `COc1cccc2c1C(=O)c1c(O)c3c(c(O)c1C2=O)C[C@@](O)(C(C)=O)C[C@@H]3OC1OC(C)C(O)C(N)C1Br` (some centres not stated), the TGI is 0.63 µM in the assay with MDA-N; 0.364 µM and 0.328 µM with M19-MEL melanoma; 0.268 µM and 0.151 µM in the assay on DMS 273 small cell lung; 1.17 µM with KM20L2 colon; 1.13 µM in the assay on MDA-MB-435; 0.175 µM and 0.607 µM with DLD-1 colon. Further, the TGI with DMS 114 small cell lung is 0.428 µM and 0.212 µM. Further, the GI50 is 0.0679 µM with DLD-1 colon and 0.0233 µM in the assay with DMS 114 small cell lung.
`CCOc1ccccc1NC(=O)CC(C(=O)OC)C(=O)C(=O)OC` (configuration not stated): the TGI in the assay with M19-MEL melanoma, with DMS 273 small cell lung, in the assay with RXF-631 renal, in the assay with KM20L2 colon and in the assay with DMS 114 small cell lung was above 100 µM in each case.
In the case of `N#CCN1C(=O)c2cccc3cc([N+](=O)[O-])cc(c23)C1=O`, the TGI is 44.5 µM in the assay on M19-MEL melanoma; above 100 µM with DMS 273 small cell lung; above 100 µM with KM20L2 colon; above 100 µM in the assay with DLD-1 colon; above 100 µM with DMS 114 small cell lung.
On to `COC1(OC)C2(Cl)C(Cl)=C(Cl)C1(Cl)C1C=CC=CC12` (configuration not stated), for which the TGI in the assay on M19-MEL melanoma was above 100 µM; in the assay on DMS 273 small cell lung, above 100 µM; with RXF-631 renal it was 39.9 µM; in the assay with KM20L2 colon, above 100 µM; with DLD-1 colon, above 100 µM; in the assay on DMS 114 small cell lung, above 100 µM.
Consider `Cc1cc(Cl)ccc1N=C1NC(=O)C(CC(=O)Nc2ccc([N+](=O)[O-])cc2[N+](=O)[O-])S1` (configuration not stated), for which the TGI in the assay on M19-MEL melanoma is 75.4 µM; in the assay on DMS 273 small cell lung, 82.7 µM; in the assay with KM20L2 colon, above 100 µM; in the assay on DLD-1 colon, above 100 µM; in the assay on DMS 114 small cell lung, 49.9 µM.
Regarding `CC(=O)[O-].CCN(CC)c1ccc(C=NCCN=Cc2ccc(N(CC)CC)cc2[O-])c([O-])c1.[Mn+3]`, the GI50 with M19-MEL melanoma is 17.7 µM; in the assay with DMS 273 small cell lung, 22.4 µM; with KM20L2 colon, 17.8 µM; with DLD-1 colon, 55.2 µM; in the assay on DMS 114 small cell lung, 19.6 µM. Besides, the TGI in the assay with M19-MEL melanoma was 32.4 µM; in the assay with DMS 273 small cell lung, 45.8 µM; with KM20L2 colon it was 33.2 µM; with DLD-1 colon, above 100 µM; in the assay on DMS 114 small cell lung, 35.8 µM.
As to `NC(N)=N/N=C(\c1nc2ccc([N+](=O)[O-])cc2[nH]c1=O)C(O)c1ccc([N+](=O)[O-])cc1` (configuration not stated), the TGI with M19-MEL melanoma was above 100 µM; in the assay on DMS 273 small cell lung it was above 100 µM; in the assay with RXF-631 renal it was above 100 µM; in the assay with KM20L2 colon, above 100 µM; in the assay with DLD-1 colon, above 100 µM; in the assay on DMS 114 small cell lung, 75 µM.
`Cc1cccc(NC(=O)C(=O)C(C(=O)c2ccc3ccccc3c2)C2OC(=O)c3ccccc32)c1C` (configuration not stated): the TGI with M19-MEL melanoma was 21.9 µM; with DMS 273 small cell lung, 39 µM; in the assay on RXF-631 renal it was 29.8 µM; in the assay with KM20L2 colon, above 100 µM; with DLD-1 colon it was 28.9 µM; in the assay with DMS 114 small cell lung, 35.2 µM.
With `O=C(O)C1OC(n2cc(F)c(=O)[nH]c2=O)CC1O` (configuration not stated), the TGI with MDA-N, in the assay with M19-MEL melanoma, in the assay on DMS 273 small cell lung, in the assay on KM20L2 colon, with NCI/ADR-RES ovarian and in the assay on MDA-MB-435 was above 100 µM each time. Also, the TGI in the assay with DLD-1 colon and in the assay on DMS 114 small cell lung was above 100 µM each time.
